The nature of data set [1]: Plasma protein binding by RED in artificial plasma (PBS with recombinant human AAG and albumin). The note with it: human; for fraction unbound at 8 h, 500 ng/mL: lurbinectedin 500 ng/mL. Type of data set: in vitro ADME. From the text:
(§1) RED was considered the best alternative over other methods (e.g., ultrafiltration) to separate lurbinectedin unbound fraction (fu), due to high non-specific binding (NSB) of lurbinectedin leading to adsorption. The RED device consists of a cylinder of dialysis membrane with an 8-kDa molecular weight cut-off held in place by a polytetrafluoroethylene support; the dialysis membrane tube is closed at one end. The RED devices are disposable and used in a reusable polytetrafluoroethylene support plate (holds a maximum of 48 devices). The design of the plate and device allows for PBS to be added in such a way that it can circulate freely around the cylinder of dialysis membrane. In use, spiked plasma (400 μL) is added to the dialysis membrane cylinder part of the RED device, and PBS (600 μL) is added to the other side. The plate, device and volumes used result in a consistent fluid level across both sides of the membrane, preventing mass movement of fluid across the membrane due to hydrostatic pressure.
(§2) Each measurement was performed using three RED devices; the devices were placed in the plate and spiked plasma and PBS were added. The plate was then mixed on an incubating microplate shaker at 100 rpm and 37°C for 8 hours.
(§3) Both the plasma (diluted 1 in 20 with plasma:PBS 1:1, v:v) and PBS (diluted with plasma 1:1, v:v) were assayed in triplicate using the extraction and UPLC-MS/MS method described above. Transfer of the PBS from the incubation plate into an equivalent volume of plasma prior to assay was performed using pipette tips that had been pre-treated with Sigmacote®.
(§4) PPB of lurbinectedin was also studied in artificial plasma (PBS with recombinant human AAG and albumin) at different levels of AAG, albumin and lurbinectedin to estimate the dissociation rate constants for each of these plasma proteins. Several experimental conditions, performed in triplicate, with triplicate analyses, were explored:
(§5) • Condition 1 with lurbinectedin at 500 ng/mL, AAG at 0, 0.25, 0.75, 1, 2 and 4 mg/mL and albumin at 40 mg/mL. • Condition 2 with lurbinectedin at 500 ng/mL, AAG at 1 mg/mL and albumin at 25, 35, 40, 45 and 50 mg/mL. • Condition 3 with lurbinectedin at 50, 75, 100, 250 and 500 ng/mL, AAG at 1 mg/mL and albumin at 40 mg/mL.

The target in data set [2] is T1, recombinant human AAG and albumin (Homo sapiens, UniProt P02768).
T1 construct: purchased Sigma-Aldrich
T1 sequence (P02768 25-609): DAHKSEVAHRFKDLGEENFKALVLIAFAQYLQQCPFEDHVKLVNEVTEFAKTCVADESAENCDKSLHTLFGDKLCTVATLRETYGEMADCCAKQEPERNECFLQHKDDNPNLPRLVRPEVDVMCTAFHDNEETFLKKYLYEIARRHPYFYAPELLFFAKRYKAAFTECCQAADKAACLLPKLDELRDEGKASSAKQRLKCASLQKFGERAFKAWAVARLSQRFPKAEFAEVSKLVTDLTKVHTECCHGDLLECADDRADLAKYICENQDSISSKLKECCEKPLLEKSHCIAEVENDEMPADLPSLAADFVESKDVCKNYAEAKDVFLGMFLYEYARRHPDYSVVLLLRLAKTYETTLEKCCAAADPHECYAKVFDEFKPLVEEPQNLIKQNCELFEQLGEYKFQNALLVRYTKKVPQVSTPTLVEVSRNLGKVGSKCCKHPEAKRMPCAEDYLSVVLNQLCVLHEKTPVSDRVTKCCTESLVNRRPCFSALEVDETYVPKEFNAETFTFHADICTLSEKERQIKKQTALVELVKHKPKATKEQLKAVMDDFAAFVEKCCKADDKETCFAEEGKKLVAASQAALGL
The data set is described as above. It counts as in vitro ADME. Conditions: without AAG, albumin 40 mg/mL, lurbinectedin 500 ng/mL.
Text: as §1, §2, §3, §4, §5

For data set [3], the system named is recombinant human AAG and albumin. The data set is described as above. It counts as in vitro ADME.
Text: as §1, §2, §3, §4, §5

Data set [4] is classed as in vitro ADME. Conditions: 20 ng/mL. On the procedure:
To ensure correct sample collection during the clinical trial procedures, whole-blood (using K3-EDTA as anticoagulant) stability was studied by spiking the blood (lurbinectedin at 20 ng/mL and M4 and M6 at 10 ng/mL). Aliquots of the whole blood were then centrifuged at 4°C for 0, 30, 60, 90 and 120 minutes post equilibration (15 minutes at 37°C) to produce plasma, which was then frozen prior to analysis. This was performed at room temperature (and in an ice bath for lurbinectedin). The derived plasma samples were analyzed in triplicate, and the criterion for acceptance was defined as having a response within ±15% of the zero-minute sample.

Data set [5] is described as follows: Non-specific binding in the absence of plasma proteins (RED method development). It counts as physicochemical. Conditions: RED devices. The source says:
To counteract the NSB, Sigmacote®-treated pipette tips were used.

On the set-up of data set [6]: method as in PMID 30090974. Conditions: cited from earlier work; for reduction of total plasma clearance: 443 cancer patients.

Like-named read-outs stand apart in the source and are kept apart here.

As for `COc1ccc2[nH]c3c(c2c1)CCN[C@]31CS[C@@H]2c3c(OC(C)=O)c(C)c4c(c3[C@H](COC1=O)N1[C@@H]2[C@H]2c3c(cc(C)c(OC)c3O)C[C@@H]([C@@H]1O)N2C)OCO4` [Lurbinectedin], the fraction unbound at 8 h, 500 ng/mL in data set [1] (AAG 0.25 mg/mL, albumin 40 mg/mL, read-out: mean percent unbound) came to 0.0168; in data set [1] (AAG 0.75 mg/mL, albumin 40 mg/mL, read-out: mean percent unbound), 0.00604; in data set [1] (AAG 1 mg/mL, albumin 40 mg/mL, read-out: mean percent unbound), 0.00473; in data set [1] (AAG 2 mg/mL, albumin 40 mg/mL, read-out: mean percent unbound), 0.00259; in data set [1] (AAG 4 mg/mL, albumin 40 mg/mL, read-out: mean percent unbound), 0.00101; in data set [1] (condition 2: varying albumin 25-50 mg/mL, AAG 1 mg/mL, read-out: fu (percent unbound)), 0.00404. In data set [2] (human, read-out: mean percent unbound), the fraction unbound at 8 h, 500 ng/mL stood at 0.0895. For the same compound, the fraction unbound at 8 h in data set [1] (condition 3: varying lurbinectedin 50-500 ng/mL, AAG 1 mg/mL, albumin 40 mg/mL, read-out: fu (percent unbound)) worked out at 0.00393. Further, the percent bound in data set [2] amounted to 91.1%; in data set [3] (AAG 0.25 mg/mL, albumin 40 mg/mL, lurbinectedin 500 ng/mL) it was 98.3%; in data set [3] (AAG 0.75 mg/mL, albumin 40 mg/mL, lurbinectedin 500 ng/mL), 99.4%; in data set [3] (AAG 1 mg/mL, albumin 40 mg/mL, lurbinectedin 500 ng/mL) it was 99.5%; in data set [3] (AAG 2 mg/mL, albumin 40 mg/mL, lurbinectedin 500 ng/mL) it was 99.7%; in data set [3] (AAG 4 mg/mL, albumin 40 mg/mL, lurbinectedin 500 ng/mL) it was 99.9%. Also, the percent bound worked out at 99.6% in data set [3] (condition 2: varying albumin 25-50 mg/mL, AAG 1 mg/mL, lurbinectedin 500 ng/mL) and 99.6% in data set [3] (condition 3: varying lurbinectedin 50-500 ng/mL, AAG 1 mg/mL, albumin 40 mg/mL). Besides, the “stability in human whole K3-EDTA blood” value in data set [4] was at least 120 min. Moreover, the “non-specific binding (NSB)” value in data set [5] is recorded as “very high levels of NSB”. Besides, in data set [6], the hepatic extraction ratio is on record as 0.19. The results for the “reduction of total plasma clearance” value in data set [6] (high alpha-1-acid glycoprotein (AAG)) and in data set [6] (low albumin) were 28% and 20%, respectively.

Values taken from paper PMC10062662, “Quantitative determination of lurbinectedin, its unbound fraction and its metabolites in human plasma utilizing ultra-performance LC–MS/MS” (PLOS ONE, 2023).
